Experimental data published in US9956242B2, “Pharmaceutical composition for prevention or treatment of cognitive function disorders comprising spinosin” (MINISTRY OF FOOD AND DRUG SAFETY, priority 2011, dated 2018).
Read-outs that look alike come from different tables or passages of the source.

Key:
[1] = system: mice with memory impairment induced by scopolamine; assay: Passive avoidance test 2 (zizyphi spinosi semen extract), scopolamine-induced memory impairment; assay type: in vivo, ICR mice; details: control group 1, donepezil 5 mg/Kg, scopolamine 1 mg/Kg i.p.
Procedure: (§1) 6-week-old ICR mice (Orient Bio Inc., Korea), weighing about 26 to 28 g, were fed with water and food freely available for 5 days in an environment, where the temperature was about 23±2° C., the humidity was about 55±10%, and the light-dark cycle was 12 hours (Animal Laboratory at the College of Pharmacy in Kyung Hee university), and used in the experiments.
After 30 minutes, learning about the passive avoidance test apparatus was performed on the mice in drug administration groups 1 to 4 and control groups 1 to 3, respectively. Specifically, the mice were placed in the first space kept light, and after a seek time of about 20 seconds, the guillotine door was opened, and the latency time taken for the mice to move to the second space kept dark was measured.
After 24 hours since the learning was completed, the present experiment was performed on drug administration groups 1 to 4 and control groups 1 to 3, respectively. The latency tire taken for all four feet of the mouse to enter the dark space after the guillotine door was opened from the seek time of 10 seconds was measured up to 300 seconds. […]

[2] = system: mice with memory impairment induced by scopolamine; assay: Y-maze test, scopolamine-induced memory impairment; assay type: in vivo, ICR mice; details: control group 1, donepezil 5 mg/Kg; scopolamine 1 mg/Kg i.p.
Procedure: as §1
A Y-maze was prepared for the experiment. The Y-maze had three arms, in which each arm was 42 cm in length, 3 cm in width, and 12 cm in height, the angle formed by three arms was 120 degrees, and the Y-maze was made of black polyvinyl resin.
160 mg of the zizyphi spinosi semen extract of Example 1 was dissolved in 4 mL of 10% Tween 80 (Polyoxyethylene sorbitan monooleate: Sigma, U.S.A.) and administered to drug administration groups 1 and 2 at doses of 100 mg/Kg and 200 mg/Kg. […]
After 30 minutes, the mice in drug administration groups 1 and 2 and control groups 1 to 3 were carefully placed on one of three arms of the Y-maze, divided into A, B, and C, respectively, and allowed to freely move, and then the arms where the mice entered were recorded. At this time, only the case where the mouse’ tail fully entered the arm was recorded as the arm where the experimental animal entered, and the case where the mouse entered the same arm was also recorded. […]

[3] = system: mice with memory impairment induced by scopolamine; assay: Morris water maze test, scopolamine-induced memory impairment; assay type: in vivo, ICR mice; details: control group 1, donepezil 5 mg/Kg, scopolamine 1 mg/Kg i.p.
Procedure: as §1
A Morris water maze test apparatus was prepared for the experiment. Four labels such as star, square, triangle, and circle were put at regular intervals on a circular pool of 90 cm in diameter and 45 cm in height, and a platform of 29 cm in height was positioned below the star. Water was filled up to 0.5 cm from the platform (water temperature: 21±1° C.) and became cloudy with pigment such that the platform was not visible from the surface of the water.
160 mg of the zizyphi spinosi semen extract of Example 1 was dissolved in 4 mL of 10% Tween 80 (Polyoxyethylene sorbitan monooleate: Sigma, U.S.A.) and administered to drug administration groups 1 and 2 at doses of 100 mg/Kg and 200 mg/Kg. Meanwhile, donepezil (Sigma-Aldrich Chemistry Co.) was administered to control group 1 at a dose of 5 mg/Kg, and 10% Tween 80 was administered to control groups 2 and 3 at a dose of 0.15 mL.
After 30 minutes, the time taken for the mice, put down in one section of the pool, in drug administration groups 1 and 2 and control groups 1 to 3 to reach the platform was measured for 60 seconds. After 30 minutes, the time taken for the mice, repositioned to the original position, to reach the platform was measured until 60 seconds. The above-described process was repeated 4 times, and the average values were obtained. The experiment was performed in the same manner as on the first day while administering the drugs for 4 days, except that the position where the mice were first put down was changed.

[4] = system: mice with memory impairment induced by scopolamine; details: for Present Experiment latency time: 24 hours after learning; for Learning latency time: learning trial; for latency time increase compared to control group 2 (scopolamine only): present experiment
[5] = control group 1, donepezil 5 mg/Kg, scopolamine 1 mg/Kg i.p.

Structure (SMILES): COc1cc2c(cc1OC)C(=O)C(CC1CCN(Cc3ccccc3)CC1)C2 (stereo not drawn) [donepezil]
- Present Experiment latency time ([1]; 24 hours after learning): 140.5 ± 25.47 s
- Learning latency time ([1]; learning trial): 17.25 ± 5.365 s
- Alternation behavior (%) [2]: 65.71 ± 10.19%
- Total entry (total number of arm entries) [2]: 34.75 ± 7.265
- Time to reach the platform ([3]; 1st day): 59.34 ± 2.055 s
- Time to reach the platform ([3]; 2nd day): 48.75 ± 14.98 s
- Time to reach the platform ([3]; 3rd day): 42.80 ± 15.16 s
- Time to reach the platform ([3]; 4th day): 34.35 ± 13.80 s
- Present Experiment latency time [4, 5]: 151.9 ± 37.24 s
- Learning latency time [4, 5]: 25.13 ± 13.68 s

Structure (SMILES): COc1cc2oc(-c3ccc(O)cc3)cc(=O)c2c(O)c1[C@@H]1O[C@H](CO)[C@@H](O)[C@H](O)[C@H]1O[C@@H]1O[C@H](CO)[C@@H](O)[C@H](O)[C@H]1O [spinosin, 6-(2-O-beta-D-Glocopyranosyl-beta-D-glucopyranosyl)-5-hydroxy-2-(4-hydroxyphenyl)-7-methoxy-4H-1-benzopyran-4-one]
- latency time increase compared to control group 2 (scopolamine only) ([4]; 2.5 mg/Kg): about 20 seconds
- Learning latency time ([4]; 2.5 mg/Kg, scopolamine 1 mg/Kg i.p. 30 min later): 25.88 ± 13.72 s
- Present Experiment latency time ([4]; 2.5 mg/Kg, scopolamine 1 mg/Kg i.p., measured up to 300 seconds): 59.13 ± 46.88 s
- latency time increase compared to control group 2 (scopolamine only) ([4]; 5 mg/Kg): about 2.5 times
- Learning latency time ([4]; 5 mg/Kg, scopolamine 1 mg/Kg i.p. 30 min later): 29.38 ± 18.17 s
- Present Experiment latency time ([4]; 5 mg/Kg, scopolamine 1 mg/Kg i.p., measured up to 300 seconds): 107.1 ± 91.70 s
- latency time increase compared to control group 2 (scopolamine only) ([4]; 10 mg/Kg): about 3 times
- Learning latency time ([4]; 10 mg/Kg, scopolamine 1 mg/Kg i.p. 30 min later): 20.50 ± 9.196 s
- Present Experiment latency time ([4]; 10 mg/Kg, scopolamine 1 mg/Kg i.p., measured up to 300 seconds): 131.3 ± 69.94 s
- latency time increase compared to control group 2 (scopolamine only) ([4]; 20 mg/Kg): about 3.5 times
- Learning latency time ([4]; 20 mg/Kg, scopolamine 1 mg/Kg i.p. 30 min later): 36.00 ± 16.45 s
- Present Experiment latency time ([4]; 20 mg/Kg, scopolamine 1 mg/Kg i.p., measured up to 300 seconds): 146.0 ± 83.53 s
- latency time compared to control group 2 (in words) ([4]; drug administration groups 1 to 4, 2.5 to 20 mg/Kg): significantly increased
- memory and learning ability compared to control group 1 (donepezil) (in words) ([4]; drug administration groups 3 and 4, 10 and 20 mg/Kg): improved to an extent similar to that in control group 1
